Assay results from US20140121272A1, “DEODORIZATION OF PEROXYCARBOXYLIC ACIDS USING CHAOTROPIC AGENTS” (ECOLAB USA INC., priority 2012, published 2014).

Assay: pH of Oxonia Active after addition of the additive
Type: physicochemical
Details: for effect of the additive on the product's pH: Oxonia Active; for pH: additive dissolved in Oxonia Active
Experimental: The ability to remove odor from a concentrated peracetic acid product was evaluated. Oxonia Active is a concentrated peracetic acid product available from Ecolab, Inc. (St. Paul, Minn.). The commercial product has about 6% peracetic acid and 22% hydrogen peroxide.
Urea was dissolved into the Oxonia Active at various molar ratios to the peracetic acid level and the resulting effect on the product's odor was observed.

Compound | effect of the additive on the product's pH | pH (molar POAA/additive 0.5/1) | pH (molar POAA/additive 1/0.25) | pH (molar POAA/additive 1/0.50) | pH (molar POAA/additive 1/1)
NC(N)=O [Urea] | did not significantly change | 1.38 | 1.10 | 1.10 | 1.16
Ammonium carbonate | raised the pH | 7.00 | – | 3.64 | 5.90
